Assay results published in PubChem BioAssay AID248 (DTP/NCI, 2004).
Values joined by “and” are separate entries in the source; they are usually repeats but may differ in a detail not shown here. Equal values may be shown once. Toxic doses and inconclusive results are not listed. Cut-off read from the data, not from the text of the source: active = T/C of 150% or more; inactive = T/C below 125%. Peptide text beside a SMILES is read from it. * marks the point of attachment. Boc = CC(C)(C)OC(=O)*; OtBu = CC(C)(C)O*; NHNH2 = NN*

Test system: L1210 leukemia ip in BDF1 mice, survival T/C
Test: NCI In Vivo Anticancer Drug Screen. Data for tumor model L1210 Leukemia (intraperitoneal) in B6D2F1 (BDF1) mice
Conditions: endpoint: mean survival time, higher = longer survival
Method in brief: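 Value reflects the ratio of survival in compound-treated mice to survival in vehicle-treated controls, with both groups carrying the same transplanted tumor.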

[1] = dose: 50.0 mg/kg/injection, schedule: Q01DX009 (ip), vehicle: saline with Tween-80
[2] = dose: 100.0 mg/kg/injection, schedule: Q01DX009 (ip), vehicle: saline with Tween-80
[3] = dose: 100.0 mg/kg/injection, schedule: Q04DX003 (ip), vehicle: saline with Tween-80
[4] = dose: 200.0 mg/kg/injection, schedule: Q01DX009 (ip), vehicle: saline with Tween-80
[5] = dose: 200.0 mg/kg/injection, schedule: Q04DX003 (ip), vehicle: saline with Tween-80
[6] = dose: 100.0 mg/kg/injection, schedule: Q01DX009 (ip), vehicle: saline
[7] = dose: 100.0 mg/kg/injection, schedule: Q04DX003 (ip), vehicle: saline
[8] = dose: 200.0 mg/kg/injection, schedule: Q01DX009 (ip), vehicle: saline
[9] = dose: 200.0 mg/kg/injection, schedule: Q04DX003 (ip), vehicle: saline
[10] = dose: 400.0 mg/kg/injection, schedule: Q01DX009 (ip), vehicle: saline
[11] = dose: 400.0 mg/kg/injection, schedule: Q04DX003 (ip), vehicle: saline
[12] = dose: 100.0 mg/kg/injection, schedule: Q04DX002 (ip), vehicle: Klucel (hydroxypropylcellulose) (HPC)
[13] = dose: 200.0 mg/kg/injection, schedule: Q04DX002 (ip), vehicle: Klucel (hydroxypropylcellulose) (HPC)
[14] = dose: 400.0 mg/kg/injection, schedule: Q04DX002 (ip), vehicle: Klucel (hydroxypropylcellulose) (HPC)
[15] = dose: 100.0 mg/kg/injection, schedule: Q01DX001 (ip), vehicle: saline
[16] = dose: 200.0 mg/kg/injection, schedule: Q01DX001 (ip), vehicle: saline
[17] = dose: 400.0 mg/kg/injection, schedule: Q01DX001 (ip), vehicle: saline
[18] = dose: 400.0 mg/kg/injection, schedule: Q01DX009 (ip), vehicle: saline with Tween-80
[19] = dose: 100.0 mg/kg/injection, schedule: Q01DX001 (ip), vehicle: Klucel (hydroxypropylcellulose) (HPC)
[20] = dose: 200.0 mg/kg/injection, schedule: Q01DX001 (ip), vehicle: Klucel (hydroxypropylcellulose) (HPC)
[21] = dose: 400.0 mg/kg/injection, schedule: Q01DX001 (ip), vehicle: Klucel (hydroxypropylcellulose) (HPC)
[22] = dose: 100.0 mg/kg/injection, schedule: Q04DX003 (ip), vehicle: Klucel (hydroxypropylcellulose) (HPC)
[23] = dose: 50.0 mg/kg/injection, schedule: Q01DX009 (ip), vehicle: Klucel (hydroxypropylcellulose) (HPC)
[24] = dose: 25.0 mg/kg/injection, schedule: Q01DX009 (ip), vehicle: saline
[25] = dose: 50.0 mg/kg/injection, schedule: Q01DX009 (ip), vehicle: saline

Measured: T/C

CCCN(CCC)CCCCO
inactive: [1] 102 % of control | [2] 95 % of control | [3] 92 % of control | [4] 102 % of control | [5] 102 % of control

CC12CCC(C(N)C1=O)C2(C)C (stereo unspecified)
inactive: [6] 103 % of control | [7] 98 % of control | [8] 105 % of control | [9] 98 % of control | [10] 94 % of control | [11] 97 % of control

Cc1ccc(C)c(NCC(=O)NN)c1
inactive: [12] 103 % of control | [13] 100 % of control | [14] 100 % of control

CCCCCCCCCCCCCCCCC1CCc2ccccc21 (stereo unspecified)
inactive: dose: 50.0 mg/kg/injection, schedule: Q01DX001 (ip), vehicle: saline 101 % of control | [15] 101 % of control | [16] 98 % of control | [17] 101 % of control

Cc1c2c(ccc3ccccc32)cc2cccc[n+]12
inactive: dose: 2.0 mg/kg/injection, schedule: Q01DX Z (ip), vehicle: saline 101 % of control | dose: 4.0 mg/kg/injection, schedule: Q01DX Z (ip), vehicle: saline 116 % of control

O=C(O)C[CH2][Ge](=[O])[O][Ge](=[O])[CH2]CC(=O)O
inactive: dose: 100.0 mg/kg/injection, schedule: Q04DX002 (ip), vehicle: saline 100 % of control | dose: 200.0 mg/kg/injection, schedule: Q04DX002 (ip), vehicle: saline 103 % of control | dose: 400.0 mg/kg/injection, schedule: Q04DX002 (ip), vehicle: saline 103 % of control

O=c1cc(C(O)c2ccccc2)c2cccc3c2n1CCC3 (stereo unspecified)
inactive: [2] 95 % of control | [3] 98 % of control | [4] 95 % of control | [5] 95 % of control | [18] 101 % of control | dose: 400.0 mg/kg/injection, schedule: Q04DX003 (ip), vehicle: saline with Tween-80 89 % of control

S=C(NCC1CCCO1)Nc1cccc2ccccc12 (stereo unspecified)
inactive: [12] 95 % of control | [13] 91 % of control | [14] 95 % of control

C/C=C/SC(=Nc1ccccc1)Nc1ccccc1
inactive: [19] 96 % of control | [20] 94 % of control | [21] 98 % of control

Cc1ccc(N2P(N(C)C)N(c3ccc(C)cc3)P2(=O)N(C)C)cc1 (stereo unspecified)
inactive: [12] 111 % of control | [13] 101 % of control | [14] 101 % of control

O=C(NCCCNC(=O)Nc1ccc(C2=NCCCN2)cc1)Nc1ccc(C2=NCCCN2)cc1
inactive: dose: 10.0 mg/kg/injection, schedule: Q01DX015 (ip), vehicle: methylcellulose (MC) 103 % of control | dose: 20.0 mg/kg/injection, schedule: Q01DX015 (ip), vehicle: methylcellulose (MC) 103 % of control

OC1C(Cl)(Cl)CCCC1(Cl)Cl
inactive: [1] 90 % of control | [2] 94 % of control | [4] 98 % of control

C(=C\c1ccccn1)/c1ccccc1
inactive: [22] 100 % of control | dose: 200.0 mg/kg/injection, schedule: Q04DX003 (ip), vehicle: Klucel (hydroxypropylcellulose) (HPC) 94 % of control | dose: 400.0 mg/kg/injection, schedule: Q04DX003 (ip), vehicle: Klucel (hydroxypropylcellulose) (HPC) 103 % of control

OC1(Cc2nccc3ccccc23)CCN(Cc2ccccc2)CC1
inactive: dose: 100.0 mg/kg/injection, schedule: Q04DX003 (ip), vehicle: carboxymethylcellulose (CMC) 89 % of control | dose: 200.0 mg/kg/injection, schedule: Q04DX003 (ip), vehicle: carboxymethylcellulose (CMC) 98 % of control

O=C(Nc1cc(C(F)(F)F)ccc1Cl)N(Cc1ccccc1)c1ccccc1
inactive: [12] 93 % of control and 108 % of control | [13] 98 % of control and 118 % of control | [14] 98 % of control | dose: 800.0 mg/kg/injection, schedule: Q04DX002 (ip), vehicle: Klucel (hydroxypropylcellulose) (HPC) 94 % of control

CC(C)CP(=O)(CC(C)C)C1CCCC1
inactive: dose: 100.0 mg/kg/injection, schedule: Q01DX001 (ip), vehicle: saline with Tween-80 100 % of control | dose: 200.0 mg/kg/injection, schedule: Q01DX001 (ip), vehicle: saline with Tween-80 105 % of control

O=C1OC(=O)C2=C1C1C3C=CCC3C2N2C=CC=CC12 (stereo unspecified)
inactive: [23] 96 % of control | dose: 100.0 mg/kg/injection, schedule: Q01DX009 (ip), vehicle: Klucel (hydroxypropylcellulose) (HPC) 103 % of control | dose: 200.0 mg/kg/injection, schedule: Q01DX009 (ip), vehicle: Klucel (hydroxypropylcellulose) (HPC) 103 % of control

CN(N=O)C(=O)NC(=O)N(C)N=O
active: dose: 18.0 mg/kg/injection, schedule: Q01DX Z (ip), vehicle: carboxymethylcellulose (CMC) 155 % of control
inactive: dose: 27.5 mg/kg/injection, schedule: Q01DX001 (ip), vehicle: carboxymethylcellulose (CMC) 110 % of control | dose: 54.0 mg/kg/injection, schedule: Q01DX001 (ip), vehicle: carboxymethylcellulose (CMC) 118 % of control | dose: 75.0 mg/kg/injection, schedule: Q01DX Z (ip), vehicle: carboxymethylcellulose (CMC) 87 % of control | dose: 108.0 mg/kg/injection, schedule: Q01DX001 (ip), vehicle: carboxymethylcellulose (CMC) 86 % of control

COc1ccc(OC)c(OC)c1CC(C)N (stereo unspecified)
inactive: [24] 108 % of control | [25] 104 % of control

CCC(C)C(NC(=O)CNC(=O)OC(C)(C)C)C(=O)NC(C(=O)NC(CCC(=O)OC(C)(C)C)C(=O)NN)C(C)C (stereo unspecified) (Boc-GIVE(OtBu)-NHNH2; configuration not given here)
inactive: dose: 75.0 mg/kg/injection, schedule: Q01DX001 (ip), vehicle: saline sonified 100 % of control | dose: 150.0 mg/kg/injection, schedule: Q01DX001 (ip), vehicle: saline sonified 92 % of control | dose: 300.0 mg/kg/injection, schedule: Q01DX001 (ip), vehicle: saline sonified 106 % of control

C/C=C/C(=O)Nc1cccc(OC(=O)NC(C)(C)C)c1
inactive: [2] 91 % of control | [18] 86 % of control

OCC12NC(=S)OC1C(O)C(O)CO2 (stereo unspecified)
inactive: [1] 104 % of control | [2] 104 % of control | [4] 104 % of control

c1ccc(C(NC2CC3CCC2C3)c2ccccc2)cc1 (stereo unspecified)
inactive: dose: 50.0 mg/kg/injection, schedule: Q01DX009 (ip), vehicle: saline sonified 101 % of control | [19] 109 % of control | dose: 100.0 mg/kg/injection, schedule: Q01DX009 (ip), vehicle: saline sonified 95 % of control | [20] 95 % of control | dose: 200.0 mg/kg/injection, schedule: Q01DX009 (ip), vehicle: saline sonified 100 % of control

Clc1c(CBr)c(Cl)c(CBr)c(Cl)c1CBr
inactive: dose: 25.0 mg/kg/injection, schedule: Q01DX009 (ip), vehicle: Klucel (hydroxypropylcellulose) (HPC) 90 % of control | [23] 87 % of control | [22] 88 % of control

CS(=O)(=O)OCC(O)C(O)C(O)C(O)COS(C)(=O)=O (stereo unspecified)
inactive: dose: 100.0 mg/kg/injection, schedule: Q01DX001 (ip), vehicle: carboxymethylcellulose (CMC) 98 % of control | dose: 200.0 mg/kg/injection, schedule: Q01DX001 (ip), vehicle: carboxymethylcellulose (CMC) 92 % of control | dose: 400.0 mg/kg/injection, schedule: Q01DX001 (ip), vehicle: carboxymethylcellulose (CMC) 103 % of control

CCOC(=O)/C(=C\c1ccccc1)C(=O)c1ccccc1
inactive: [15] 97 % of control | [7] 97 % of control | [16] 93 % of control | [9] 92 % of control | [17] 88 % of control | [11] 101 % of control

ClCC#Cc1ccccc1
inactive: dose: 12.0 mg/kg/injection, schedule: Q01DX009 (ip), vehicle: saline 100 % of control | [24] 100 % of control | [25] 101 % of control | [7] 103 % of control | [9] 92 % of control | [11] 91 % of control

CN(C)P1(N)=NP(N)(N(C)C)=NP(N)(N(C)C)=N1 (stereo unspecified)
inactive: [6] 98 % of control | [8] 95 % of control | [10] 93 % of control

CCOC(=O)c1cnc(C)nc1N
inactive: [19] 97 % of control | [20] 97 % of control | [21] 92 % of control
